Experiments:
Assay in all cases: relative viability (nuclei count vs DMSO), 5 days (fraction); higher = more cells survive
[1] = compound: CCn1c(-c2nonc2N)nc2cnc(Oc3cccc(NC(=O)c4ccc(OCCN5CCOCC5)cc4)c3)cc21 + CS(=O)(=O)CCNCc1ccc(-c2ccc3ncnc(Nc4ccc(OCc5cccc(F)c5)c(Cl)c4)c3c2)o1 [Lapatinib] (partner 2 µM)
Outline: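 Lung cancer cell lines were seeded in 1536-well plates and dosed by pin tool the next day, with either a single drug or a fixed anchor-drug dose combined with five library-drug doses (not always all listed) spaced in √10 steps. Five days later, one step fixed the cells and stained their nuclei (final 0.05% Triton X-100, 1% formaldehyde, 1 ug/ml Hoechst), and nuclei were counted on 4× images. Relative viability is the nuclei count in treated wells divided by the count in vehicle wells, and each value is the median of duplicate plates.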

Mirin = compound: N=C1NC(=O)/C(=C/c2ccc(O)cc2)S1 [Mirin]
Outline: (§1)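 Viability was read as treated-well nuclei divided by vehicle-well nuclei, using the median across plates. Lung cancer cell lines in 1536-well plates were kept overnight at 37 °C, pinned with five √10-spaced library-drug doses, and after 5 days were Hoechst-stained, imaged at 4× and counted in MetaXpress. Plates passed only with control CV below 25% and at least one doubling.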

[2] = compound: CCC1=CN=CN=C1N2CCN(CC2)CC3=NC4=C(N3)C=C(C=C4)C(F)(F)F
Outline: as §1

[3] = compound: CCn1c(-c2nonc2N)nc2cnc(Oc3cccc(NC(=O)c4ccc(OCCN5CCOCC5)cc4)c3)cc21
Outline: as §1

UMC-11
relative viability ([1]; first compound 0.04 µM): 0.959
relative viability ([1]; first compound 0.1265 µM): 0.833
relative viability ([1]; first compound 0.4 µM): 0.509
relative viability ([1]; first compound 1.265 µM): 0.223
relative viability ([1]; first compound 4 µM): 0.258
relative viability (Mirin; 0.25 µM): 1.01
relative viability (Mirin; 0.7906 µM): 0.657
relative viability (Mirin; 2.5 µM): 1.02
relative viability (Mirin; 7.906 µM): 0.803
relative viability (Mirin; 25 µM): 0.608
relative viability ([2]; 0.04 µM): 0.925
relative viability ([2]; 0.1265 µM): 0.948
relative viability ([2]; 0.4 µM): 0.933
relative viability ([2]; 1.265 µM): 0.838
relative viability ([2]; 4 µM): 0.888
relative viability ([3]; 0.04 µM): 0.965
relative viability ([3]; 0.1265 µM): 0.85
relative viability ([3]; 0.4 µM): 0.481
relative viability ([3]; 1.265 µM): 0.275
relative viability ([3]; 4 µM): 0.236

Reference: the supplement of paper PMC10307832
